Laboratory results taken from ChEMBL document CHEMBL2073905, “Interactions of a nonpeptidic drug, valacyclovir, with the human intestinal peptide transporter (hPEPT1) expressed in a mammalian cell line” (J Pharmacol Exp Ther, 1999).
Where a SMILES comes first, the peptide text is derived from it. [ ]: non-standard residue; d: D form. Sar = CNCC(=O)O

Columns and labels:
Format in all cases: functional, cell-based
[1] = molecular target: T1, Solute carrier family 15 member 1 (Homo sapiens) (UniProt P46059); assay: TP_TRANSPORTER: inhibition of VACV uptake (VACV: 20 uM, Leu-Leu: 10000 uM) in PEPT1-expressing CHO cells
T1 sequence (whole entry): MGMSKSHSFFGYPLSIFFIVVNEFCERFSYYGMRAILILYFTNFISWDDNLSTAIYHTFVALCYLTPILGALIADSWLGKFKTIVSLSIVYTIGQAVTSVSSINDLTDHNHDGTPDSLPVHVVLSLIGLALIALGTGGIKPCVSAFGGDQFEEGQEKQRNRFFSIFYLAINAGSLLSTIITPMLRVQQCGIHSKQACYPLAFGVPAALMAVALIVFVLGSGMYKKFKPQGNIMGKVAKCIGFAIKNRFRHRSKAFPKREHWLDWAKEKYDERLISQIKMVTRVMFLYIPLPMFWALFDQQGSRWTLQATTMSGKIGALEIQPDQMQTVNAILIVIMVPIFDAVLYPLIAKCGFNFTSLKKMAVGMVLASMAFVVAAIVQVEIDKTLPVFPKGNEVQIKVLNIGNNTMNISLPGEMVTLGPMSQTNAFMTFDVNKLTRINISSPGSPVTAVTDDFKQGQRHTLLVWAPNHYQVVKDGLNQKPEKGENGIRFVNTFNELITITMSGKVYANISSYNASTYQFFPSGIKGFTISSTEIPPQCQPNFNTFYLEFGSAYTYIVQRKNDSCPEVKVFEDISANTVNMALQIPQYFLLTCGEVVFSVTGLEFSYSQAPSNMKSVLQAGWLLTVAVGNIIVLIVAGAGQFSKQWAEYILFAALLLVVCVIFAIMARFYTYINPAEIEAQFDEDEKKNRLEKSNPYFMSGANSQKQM

[2] = molecular target: T2, Solute carrier family 15 member 1 (Homo sapiens, UniProt P46059); assay: TP_TRANSPORTER: inhibition of VACV uptake in PEPT1-expressing CHO cells
T2 sequence (P46059 whole entry): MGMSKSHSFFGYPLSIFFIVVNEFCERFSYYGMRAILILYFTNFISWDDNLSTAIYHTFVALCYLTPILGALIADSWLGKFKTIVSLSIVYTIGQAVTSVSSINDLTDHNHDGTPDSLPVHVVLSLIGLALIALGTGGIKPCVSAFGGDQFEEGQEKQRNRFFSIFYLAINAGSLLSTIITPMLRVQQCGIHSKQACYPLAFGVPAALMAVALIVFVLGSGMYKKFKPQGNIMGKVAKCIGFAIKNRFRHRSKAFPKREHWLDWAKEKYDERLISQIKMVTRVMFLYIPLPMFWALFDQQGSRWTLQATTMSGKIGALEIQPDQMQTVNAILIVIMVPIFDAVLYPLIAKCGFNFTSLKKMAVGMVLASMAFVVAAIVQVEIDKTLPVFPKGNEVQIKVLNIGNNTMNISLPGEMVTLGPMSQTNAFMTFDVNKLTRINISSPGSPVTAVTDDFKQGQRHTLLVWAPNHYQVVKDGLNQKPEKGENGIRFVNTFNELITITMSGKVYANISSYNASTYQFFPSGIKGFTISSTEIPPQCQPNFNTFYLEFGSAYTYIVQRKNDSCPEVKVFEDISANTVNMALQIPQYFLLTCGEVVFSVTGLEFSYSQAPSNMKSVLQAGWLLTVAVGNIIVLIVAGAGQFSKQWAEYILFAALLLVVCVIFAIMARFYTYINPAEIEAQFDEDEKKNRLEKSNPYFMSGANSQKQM

[3] = molecular target: T1, Solute carrier family 15 member 1 (Homo sapiens); assay: TP_TRANSPORTER: inhibition of VACV uptake (VACV: 20 uM, Gly-Leu: 10000 uM) in PEPT1-expressing CHO cells
[4] = molecular target: T1, Solute carrier family 15 member 1 (Homo sapiens); assay: TP_TRANSPORTER: inhibition of VACV uptake (VAVC: 20 uM, Ampicillin: 10000 uM) in PEPT1-expressing CHO cells
[5] = molecular target: T1, Solute carrier family 15 member 1 (Homo sapiens); assay: TP_TRANSPORTER: inhibition of VACV uptake (VACV: 20 uM, Cephalexin: 10000 uM) in PEPT1-expressing CHO cells
[6] = molecular target: T1, Solute carrier family 15 member 1 (Homo sapiens); assay: TP_TRANSPORTER: inhibition of VACV uptake (VACV: 20 uM, Gly-Gly: 10000 uM) in PEPT1-expressing CHO cells
[7] = substrate: CC(C)[C@H](N)C(=O)OCCOCn1cnc2c(=O)nc(N)[nH]c21; assay: (§1) TP_TRANSPORTER: uptake in PEPT1-expressing CHO cells
[8] = substrate: CN(CC(=O)O)C(=O)CN; assay: as §1

CC(C)C[C@H](NC(=O)[C@@H](N)CC(C)C)C(=O)O
inhibition [1]: > 80%

CN(CC(=O)O)C(=O)CN [GLYCYLSARCOSINE] (H-Gly-[Sar]-OH)
Ki [2]: 12.8 mM

CC(C)C[C@H](NC(=O)CN)C(=O)O
inhibition [3]: > 80%

CC1=C(C(=O)O)N2C(=O)[C@@H](NC(=O)[C@H](N)c3ccc(O)cc3)[C@H]2SC1 [CEFADROXIL]
Ki [2]: 9.1 mM

CC1(C)S[C@@H]2[C@H](NC(=O)[C@H](N)c3ccccc3)C(=O)N2[C@H]1C(=O)O
inhibition [4]: 50%

CC1=C(C(=O)O)N2C(=O)[C@@H](NC(=O)[C@H](N)c3ccccc3)[C@H]2SC1
inhibition [5]: 50%

NCC(=O)NCC(=O)O (H-Gly-Gly-OH)
inhibition [6]: > 80%

B1: Solute carrier family 15 member 1 (Homo sapiens), P46059 (protein)
chain: MGMSKSHSFFGYPLSIFFIVVNEFCERFSYYGMRAILILYFTNFISWDDNLSTAIYHTFVALCYLTPILGALIADSWLGKFKTIVSLSIVYTIGQAVTSVSSINDLTDHNHDGTPDSLPVHVVLSLIGLALIALGTGGIKPCVSAFGGDQFEEGQEKQRNRFFSIFYLAINAGSLLSTIITPMLRVQQCGIHSKQACYPLAFGVPAALMAVALIVFVLGSGMYKKFKPQGNIMGKVAKCIGFAIKNRFRHRSKAFPKREHWLDWAKEKYDERLISQIKMVTRVMFLYIPLPMFWALFDQQGSRWTLQATTMSGKIGALEIQPDQMQTVNAILIVIMVPIFDAVLYPLIAKCGFNFTSLKKMAVGMVLASMAFVVAAIVQVEIDKTLPVFPKGNEVQIKVLNIGNNTMNISLPGEMVTLGPMSQTNAFMTFDVNKLTRINISSPGSPVTAVTDDFKQGQRHTLLVWAPNHYQVVKDGLNQKPEKGENGIRFVNTFNELITITMSGKVYANISSYNASTYQFFPSGIKGFTISSTEIPPQCQPNFNTFYLEFGSAYTYIVQRKNDSCPEVKVFEDISANTVNMALQIPQYFLLTCGEVVFSVTGLEFSYSQAPSNMKSVLQAGWLLTVAVGNIIVLIVAGAGQFSKQWAEYILFAALLLVVCVIFAIMARFYTYINPAEIEAQFDEDEKKNRLEKSNPYFMSGANSQKQM
Km [7]: 1640 µM | Km [8]: 3130 µM
